The species named for one assay is Rattus norvegicus. Kind of assay: Antitumor activity against DMBA-induced mammary tumors in rats. It is filed as functional.
Assay [1] has as its target T1, Retinoic acid receptor gamma (Homo sapiens, UniProt P13631).
T1 sequence (P13631 whole entry): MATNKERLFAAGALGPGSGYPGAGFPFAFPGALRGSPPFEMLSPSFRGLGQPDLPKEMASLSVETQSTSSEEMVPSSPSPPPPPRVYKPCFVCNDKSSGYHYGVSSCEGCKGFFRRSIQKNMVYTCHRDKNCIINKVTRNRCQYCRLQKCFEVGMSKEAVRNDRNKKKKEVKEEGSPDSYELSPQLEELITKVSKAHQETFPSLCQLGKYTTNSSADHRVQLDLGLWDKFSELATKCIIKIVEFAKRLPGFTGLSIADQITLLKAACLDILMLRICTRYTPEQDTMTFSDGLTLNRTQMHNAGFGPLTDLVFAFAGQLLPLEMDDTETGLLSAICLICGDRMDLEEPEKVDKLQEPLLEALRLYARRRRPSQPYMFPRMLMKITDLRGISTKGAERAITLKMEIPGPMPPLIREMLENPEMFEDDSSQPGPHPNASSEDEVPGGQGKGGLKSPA
Kind of assay: Inhibition of [3H]RA binding to Retinoic acid receptor RAR gamma.

Assay [2] deals with T1, Retinoic acid receptor gamma. Kind of assay: Inhibition of [3H]RA to binding Retinoic acid receptor RAR gamma.

Consider `CC1=C(/C=C/C(C)=C/C=C/C(C)=C/C(=O)O)C(C)(C)CCC1` [TRETINOIN], for which, in the assay listed under Rattus norvegicus, the Tumor came out at 1.17 number, the Tumor incidence is reported as 83% and the Tumor latency worked out at 49 days.
One may read the Ki as the dissociation constant of the complex between target and ligand, obtained from inhibition or displacement. Lower therefore signals tighter binding. As for `CC1=C(/C=C/C(C)=C/C=C/C(C)=C/C(=O)NC2OC(C(=O)O)C(O)C(O)C2O)C(C)(C)CCC1` (stereo unspecified), in the assay filed under Rattus norvegicus, the Tumor came out at 0.83 number, the Tumor incidence was determined as 50% and the Tumor latency amounted to 64 days. The same compound had a Ki in assay [1] of 280 nM.
In the assay filed under Rattus norvegicus, `CC1=C(/C=C/C(C)=C/C=C/C(C)=C/C(=O)NC2OC(CO)C(O)C(O)C2O)C(C)(C)CCC1` (stereo unspecified) returned a Tumor of 0.92 number, a Tumor incidence of 58% and a Tumor latency of 64 days. In assay [2], this compound yielded a Ki of 710 nM.

The values above are taken from ChEMBL document CHEMBL1127964, “N-linked analogs of retinoid O-glucuronides: potential cancer chemopreventive/chemotherapeutic agents” (Bioorg Med Chem Lett, 1994).
